Test results reported in patent publication US8258309B2, “Azapeptide derivatives” (priority 2007, dated 2012).
Where two headings read alike, the source gives them in different places.

Columns and labels:
[1] = Microsomal assay: stability in human liver microsomes; format: in vitro ADME; settings: for half-life at 1 μM: liver microsomes
How it was run: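 Test compound at 1.0 μM incubated at 37° C with pooled human liver microsomes (0.5 mg/mL), 2 mM NADPH, 3 mM MgCl2 in 100 mM potassium phosphate pH 7.4. Samples taken at 0–30 min and parent remaining measured by LC-MS/MS.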

in vivo = settings: chimpanzee, po
Method: Four chimps (two male and two female) were used in this study and were fasted overnight prior to administration of the compound solution. Animals were sedated with ketamine and/or telazol prior to dosing. Intravenous dosing was achieved by IV infusion over 30 minutes.
Approximately 4.5 mL of blood was collected into vacutainer tubes with sodium heparin as an anticoagulant at 0 (preinfusion), 15 min., 29.5 min (immediately before the end of the infusion), and then at 6, 15, 30, and 45 minutes, and 1, 2, 4, 6, 8, 10, 12, 24 hours after the infusion is stopped. A similar procedure was used to collect blood after oral dosing with samples taken at 0 (predose), 15, and 30 minutes, and at 1, 1.5, 2, 4, 6, 8, 10, 12, 24 hours postdose. Following sample collection, the vacutainer tubes were rocked by hand several times to insure adequate mixing. Blood samples were placed immediately on wet ice and centrifuged within 1 hour from time of collection. Following centrifugation, the resulting plasma was stored frozen at −70° C. until analysis. The results are summarized in FIGS. 4 and 5 and tables 6 and 7.
Run B: Same as Run A, except the dose was 150 mg orally of each of atazanavir and compounds 114 and 120, and the vehicle was 10 percent ethanol, 40 percent polypropylglycol in 2.5 percent citric acid.

[2] = human, pH 7.4, human liver microsomes 0.5 mg/mL, 1.0 μM test compound, first run (Table 2), read-out: T1/2 ± SD
[3] = human, pH 7.4, human liver microsomes, repeated assay (Table 3), read-out: t1/2 (min) Avg ± SD (n = 3)

Row | Structure (SMILES) | half-life at 1 μM [1, 2] | half-life at 1 μM [1, 3] | concentration detected intact in urine (in vivo; 24 h) | concentration at 24 h (in vivo; concentration detected intact in urine) | half-life as compared to atazanavir ([1]; human liver microsomes, first run) | increase in half-life as compared to atazanavir ([1]; human, 1 μM, pH 7.4)
1 | COC(=O)N[C@H](C(=O)N[C@@H](Cc1ccccc1)[C@@H](O)CN(Cc1ccc(-c2ccccn2)cc1)NC(=O)[C@@H](NC(=O)OC)C(C)(C)C)C(C)(C)C [Atazanavir, atazanavir, reference compound] | 18.6 ± 2.99 min | 18.8 ± 0.6 min | 3260 ng/mL | 1640 ng/mL |  | 
2 | [2H]C([2H])([2H])OC(=O)N[C@H](C(=O)N[C@@H](Cc1ccccc1)[C@@H](O)CN(Cc1ccc(-c2ccccn2)cc1)NC(=O)[C@@H](NC(=O)OC([2H])([2H])[2H])C(C([2H])([2H])[2H])(C([2H])([2H])[2H])C([2H])([2H])[2H])C(C([2H])([2H])[2H])(C([2H])([2H])[2H])C([2H])([2H])[2H] [Compound 122, 1,14-Di(methyl-d3)(3S,8S,9S,12S)-3,12-bis[(1,1-dimethylethyl)-d9]-8-hydroxy-4,11-dioxo-9-(phenylmethyl)-6-[[4-(2-pyridinyl)phenyl]methyl]-2,5,6,10,13-pentaazatetradecanedioate] | 35.4 ± 1.68 min | 28.3 ± 0.3 min |  |  | increased half-life | ~67%
